Assay type in all cases: in vivo
Data set [1] has as its system Glycine max. Briefly: Test Example 4: effect on crop by application to foliage (diluvial soil, plastic box). Particulars: foliage application, 320 g/ha. In a few lines: (§1)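 Seeds sown in sterilized diluvial soil, covered ~1.5 cm, grown 14 days in greenhouse at 25° C. to 30° C. Emulsion formulation diluted in water to set rate (g/ha) and sprayed onto stems and leaves. Effect scored visually 3 weeks later on 0–5 scale (5 = ≥90% herbicidal ratio, 0 = ≤5%).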

Data set [2] concerns Zea mays. The data set is described as above. To be noted: foliage application, 320 g/ha. In a few lines:
as §1

The test system of data set [3] is directly sowed Oryza sativa. The description is as above. Particulars: foliage application, 320 g/ha. Put shortly: as §1
Data set [4] relates to Beta vulgaris ssp. vulgaris. The description is as above. To be noted: foliage application, 320 g/ha. In a few lines: as §1
Data set [5] has as its system Triticum aestivum. The description is as above. Particulars: foliage application, 320 g/ha. Put shortly:
as §1

The test system of data set [6] is Brassica campestris L. Described as above. Particulars: foliage application, 320 g/ha. Put shortly:
as §1

Data set [7] has as its system Echinochloa crus-galli var. crus-galli. Briefly: Test Example 3: herbicidal effect by application to foliage (Wagner pot, water depth 0.1-0.5 cm). To be noted: Nineteenth Table; application to foliage; application herbicide amount 320 g/ha. Put shortly: (§2)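 A small sprayer delivered the diluted emulsion uniformly to foliage at the chosen rate in g/ha, 14 days after sowing in Wagner pots held at 25–30 °C. Outcome: 0–5 herbicidal-ratio score read three weeks post-treatment.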

Data set [8] has as its system Cyperus difformis. Described as above. Particulars: Nineteenth Table; application to foliage; application herbicide amount 320 g/ha. Put shortly:
as §2

Data set [9] relates to Leptochloa chinensis. The description is as above. To be noted: Nineteenth Table; application to foliage; application herbicide amount 320 g/ha. Put shortly: as §2
Data set [10] has as its system Apera spica-venti. Put plainly: Test Example 4: herbicidal effect by application to foliage (diluvial soil, plastic box). Particulars: foliage application, 320 g/ha. In a few lines: as §1
In data set [11] the test system is Echinochloa crus-galli var. crus-galli. The data set is described as above. To be noted: foliage application, 320 g/ha. In a few lines: as §1
Data set [12] has as its system Amaranthus retroflexus. The data set is described as above. To be noted: foliage application, 320 g/ha. Put shortly:
as §1

The subject of data set [13] is Stellaria media. Described as above. To be noted: foliage application, 320 g/ha. In a few lines: as §1
In data set [14] the test system is Abutilon theophrasti. Described as above. Particulars: foliage application, 320 g/ha. In a few lines:
as §1

Data set [15] relates to Veronica persica. The description is as above. Particulars: foliage application, 320 g/ha. Put shortly:
as §1

The subject of data set [16] is Digitaria ciliaris. The data set is described as above. To be noted: foliage application, 320 g/ha. Put shortly: as §1
Data set [17] relates to Galium spurium. The data set is described as above. To be noted: foliage application, 320 g/ha. Put shortly: as §1
The test system of data set [18] is Avena fatua. The description is as above. Particulars: foliage application, 320 g/ha. In a few lines:
as §1

Data set [19] concerns Chenopodium album. The description is as above. To be noted: foliage application, 320 g/ha. Put shortly:
as §1

Data set [20] has as its system Alopecurus myosuroides. The description is as above. Particulars: foliage application, 320 g/ha. In a few lines: as §1
The test system of data set [21] is Setaria viridis. The description is as above. Particulars: foliage application, 320 g/ha. In a few lines:
as §1

The test system of data set [22] is Lolium multiflorum Lam. The description is as above. To be noted: foliage application, 320 g/ha. Put shortly:
as §1

Regarding `CCCS(=O)(=O)c1nnc2c(C(=O)Nc3nnnn3C)ccc(C(F)(F)F)n12` [2-070], the “c (Glycine max) effect on crop grade” value in data set [1] was 4 (Herbicidal ratio of 70% or more and less than 90%). In addition, the “b (Zea mays) effect on crop grade” value in data set [2] is 3 (Herbicidal ratio of 40% or more and less than 70%). Besides, the “d (directly sowed Oryza sativa) effect on crop grade” value in data set [3] was 3 (Herbicidal ratio of 40% or more and less than 70%). The “f (Beta vulgaris ssp. vulgaris) effect on crop grade” value in data set [4] is listed as 5 (Herbicidal ratio of 90% or more (almost completely withered)). The “e (Triticum aestivum) effect on crop grade” value (“e (Triticum aestivum) effect” below) in data set [5] was 4 (Herbicidal ratio of 70% or more and less than 90%). Besides, the “g (Brassica campestris L.) effect on crop grade” value in [6] is 5 (Herbicidal ratio of 90% or more (almost completely withered)). In data set [7], the “H (herbicidal effect grade)” value was 5 (Herbicidal ratio of 90% or more (almost completely withered)). In addition, in data set [8], the “E (herbicidal effect grade)” value is 5 (Herbicidal ratio of 90% or more (almost completely withered)). For the same molecule, the “D (herbicidal effect grade)” value in data set [9] was 5 (Herbicidal ratio of 90% or more (almost completely withered)). For the same molecule, the “L (Apera spica-venti.) herbicidal effect grade” value in [10] is 4 (Herbicidal ratio of 70% or more and less than 90%). In addition, the “H (Echinochloa crus-galli var. crus-galli) herbicidal effect grade” value in data set [11] was 5 (Herbicidal ratio of 90% or more (almost completely withered)). Further, in data set [12], the “N (Amaranthus retroflexus) herbicidal effect grade” value is on record as 5 (Herbicidal ratio of 90% or more (almost completely withered)). Further, the “P (Stellaria media) herbicidal effect grade” value in data set [13] was 5 (Herbicidal ratio of 90% or more (almost completely withered)). Further, the “M (Abutilon theophrasti) herbicidal effect grade” value in data set [14] was 4 (Herbicidal ratio of 70% or more and less than 90%). For the same molecule, the “R (Veronica persica) herbicidal effect grade” value in data set [15] was 5 (Herbicidal ratio of 90% or more (almost completely withered)). In addition, the “F (Digitaria ciliaris) herbicidal effect grade” value in [16] is recorded as 5 (Herbicidal ratio of 90% or more (almost completely withered)). The “Q (Galium spurium) herbicidal effect grade” value in [17] was 4 (Herbicidal ratio of 70% or more and less than 90%). In [18], the “I (Avena fatua) herbicidal effect grade” value was 5 (Herbicidal ratio of 90% or more (almost completely withered)). For the same molecule, the “O (Chenopodium album) herbicidal effect grade” value in [19] is 5 (Herbicidal ratio of 90% or more (almost completely withered)). The “J (Alopecurus myosuroides) herbicidal effect grade” value in [20] is 4 (Herbicidal ratio of 70% or more and less than 90%). The “G (Setaria viridis) herbicidal effect grade” value in data set [21] is given as 5 (Herbicidal ratio of 90% or more (almost completely withered)). In addition, the “K (Lolium multiflorum Lam.) herbicidal effect grade” value in data set [22] was 4 (Herbicidal ratio of 70% or more and less than 90%).
Turning to `COc1cccc(-c2nnc3c(C(=O)Nc4nnnn4C)ccc(C(F)(F)F)n23)c1` [2-044], the “c (Glycine max) effect on crop grade” value in data set [1] was 2 (Herbicidal ratio of 20% or more and less than 40%). Moreover, in data set [2], the “b (Zea mays) effect on crop grade” value was 3 (Herbicidal ratio of 40% or more and less than 70%). For the same molecule, the “d (directly sowed Oryza sativa) effect on crop grade” value in [3] is 4 (Herbicidal ratio of 70% or more and less than 90%). The “f (Beta vulgaris ssp. vulgaris) effect on crop grade” value in [4] was 5 (Herbicidal ratio of 90% or more (almost completely withered)). For the same molecule, the “e (Triticum aestivum) effect” value in data set [5] is 1 (Herbicidal ratio of 5% or more and less than 20%). The “g (Brassica campestris L.) effect on crop grade” value in data set [6] is 3 (Herbicidal ratio of 40% or more and less than 70%). Besides, the “H (herbicidal effect grade)” value in data set [7] is 5 (Herbicidal ratio of 90% or more (almost completely withered)). For the same molecule, in data set [8], the “E (herbicidal effect grade)” value is given as 5 (Herbicidal ratio of 90% or more (almost completely withered)). Also, in data set [9], the “D (herbicidal effect grade)” value is 5 (Herbicidal ratio of 90% or more (almost completely withered)). Besides, in data set [10], the “L (Apera spica-venti.) herbicidal effect grade” value is 3 (Herbicidal ratio of 40% or more and less than 70%). Besides, the “H (Echinochloa crus-galli var. crus-galli) herbicidal effect grade” value in [11] is 5 (Herbicidal ratio of 90% or more (almost completely withered)). In [12], the “N (Amaranthus retroflexus) herbicidal effect grade” value is reported as 5 (Herbicidal ratio of 90% or more (almost completely withered)). In data set [13], the “P (Stellaria media) herbicidal effect grade” value was 4 (Herbicidal ratio of 70% or more and less than 90%). For the same molecule, the “M (Abutilon theophrasti) herbicidal effect grade” value in data set [14] was 5 (Herbicidal ratio of 90% or more (almost completely withered)). In addition, the “R (Veronica persica) herbicidal effect grade” value in [15] is listed as 5 (Herbicidal ratio of 90% or more (almost completely withered)). Also, the “F (Digitaria ciliaris) herbicidal effect grade” value in data set [16] is given as 5 (Herbicidal ratio of 90% or more (almost completely withered)). The “Q (Galium spurium) herbicidal effect grade” value in data set [17] was 3 (Herbicidal ratio of 40% or more and less than 70%). In addition, in data set [18], the “I (Avena fatua) herbicidal effect grade” value was 2 (Herbicidal ratio of 20% or more and less than 40%). Moreover, in [19], the “O (Chenopodium album) herbicidal effect grade” value was 5 (Herbicidal ratio of 90% or more (almost completely withered)). For the same molecule, the “J (Alopecurus myosuroides) herbicidal effect grade” value in [20] was 2 (Herbicidal ratio of 20% or more and less than 40%). In addition, the “G (Setaria viridis) herbicidal effect grade” value in [21] is 4 (Herbicidal ratio of 70% or more and less than 90%). Further, in data set [22], the “K (Lolium multiflorum Lam.) herbicidal effect grade” value was 2 (Herbicidal ratio of 20% or more and less than 40%).
On to `CC(C)Nc1nnc2c(C(=O)Nc3nnnn3C)ccc(C(F)(F)F)n12` [2-066], for which the “c (Glycine max) effect on crop grade” value in data set [1] is 1 (Herbicidal ratio of 5% or more and less than 20%). The “b (Zea mays) effect on crop grade” value in [2] is 4 (Herbicidal ratio of 70% or more and less than 90%). Also, the “d (directly sowed Oryza sativa) effect on crop grade” value in data set [3] was 4 (Herbicidal ratio of 70% or more and less than 90%). The “f (Beta vulgaris ssp. vulgaris) effect on crop grade” value in [4] is listed as 5 (Herbicidal ratio of 90% or more (almost completely withered)). Further, the “e (Triticum aestivum) effect” value in data set [5] was 3 (Herbicidal ratio of 40% or more and less than 70%). Further, the “g (Brassica campestris L.) effect on crop grade” value in data set [6] is 4 (Herbicidal ratio of 70% or more and less than 90%). For the same molecule, in [7], the “H (herbicidal effect grade)” value is given as 5 (Herbicidal ratio of 90% or more (almost completely withered)). Besides, in data set [8], the “E (herbicidal effect grade)” value is listed as 5 (Herbicidal ratio of 90% or more (almost completely withered)). The “D (herbicidal effect grade)” value in data set [9] was 5 (Herbicidal ratio of 90% or more (almost completely withered)). Further, in data set [10], the “L (Apera spica-venti.) herbicidal effect grade” value is 3 (Herbicidal ratio of 40% or more and less than 70%). In addition, in data set [11], the “H (Echinochloa crus-galli var. crus-galli) herbicidal effect grade” value is 5 (Herbicidal ratio of 90% or more (almost completely withered)). Besides, the “N (Amaranthus retroflexus) herbicidal effect grade” value in [12] was 5 (Herbicidal ratio of 90% or more (almost completely withered)). Moreover, the “P (Stellaria media) herbicidal effect grade” value in [13] is listed as 5 (Herbicidal ratio of 90% or more (almost completely withered)). Besides, in [14], the “M (Abutilon theophrasti) herbicidal effect grade” value is 4 (Herbicidal ratio of 70% or more and less than 90%). The “R (Veronica persica) herbicidal effect grade” value in data set [15] is 5 (Herbicidal ratio of 90% or more (almost completely withered)). In addition, the “F (Digitaria ciliaris) herbicidal effect grade” value in [16] is listed as 5 (Herbicidal ratio of 90% or more (almost completely withered)). Moreover, the “Q (Galium spurium) herbicidal effect grade” value in [17] was 3 (Herbicidal ratio of 40% or more and less than 70%). Also, the “I (Avena fatua) herbicidal effect grade” value in data set [18] is 2 (Herbicidal ratio of 20% or more and less than 40%). Moreover, the “O (Chenopodium album) herbicidal effect grade” value in data set [19] is 5 (Herbicidal ratio of 90% or more (almost completely withered)). The “J (Alopecurus myosuroides) herbicidal effect grade” value in data set [20] was 3 (Herbicidal ratio of 40% or more and less than 70%). For the same molecule, in [21], the “G (Setaria viridis) herbicidal effect grade” value is 5 (Herbicidal ratio of 90% or more (almost completely withered)). Moreover, in [22], the “K (Lolium multiflorum Lam.) herbicidal effect grade” value is 3 (Herbicidal ratio of 40% or more and less than 70%).
